1 compound from patent publication US7011839B2, “Otic microbial combination for treatment of animals with ruptured tympanic membrane” (Baya Corporation, priority 2000, dated 2006) can be followed below.

The structures appear in SMILES notation.

What all share (assay): MIC of each active ingredient (NCCLS agar plates)
Common to all, as to format: cell-based

Test [1] has as its system common dermal (otic) pathogens.
The subject of another test is Candida. Particulars: at the concentrations tested.
Another test concerns Malassezia. Particulars: at the concentrations tested.

For the compound `CCN1CCN(c2cc3c(cc2F)c(=O)c(C(=O)O)cn3C2CC2)CC1` [Enrofloxacin], the “Activity on common dermal (otic) pathogens, based on MICs” value in test [1] is listed as “active”. Further, in the test with Candida, the “Effectiveness on Candida” value was “not effective”. For the same compound, in the test with Malassezia, the “Effectiveness on Malassezia” value was “not effective”.
